Results taken from patent publication US4699928A, “Fluoroallylamine derivatives” (Merrell Dow Pharmaceuticals Inc., priority 1986, dated 1987).

Columns and labels:
MAO-B versus MAO-A = test: Selectivity of inhibition of MAO-B versus MAO-A in vitro (14C phenethylamine / 14C 5-hydroxytryptamine); type: biochemical; settings: rat, brain mitochondria
Experimental: Mitochondria are prepared from rat brain by homogenation in phosphate buffer (0.1 M, pH 7.2) followed by differential centrifugation. The mitochondria are suspended in the same buffer, the test compound is added at the desired concentration, and the system is incubated. At different time intervals, aliquots are taken and MAO activity is measured using ^14 C p-tyramine (a mixed substrate) as the substrate (See A. Christmas et al., supra).
(C) The selectivity of a compound of Formula I with respect to inhibition of MAO-A and MAO-B can be determined by repeating the procedure of Part B and measuring the MAO activity using ^14 C 5-hydroxytryptamine (a preferred substrate for MAO-A) and ^14 C phenethylamine (a preferred substrate for MAO-B) as the substrate.

[1] = tested on: heart rate response to p-tyramine; test: Cheese effect: potentiation of response to intravenous p-tyramine, pithed rats; type: in vivo, male Sprague-Dawley rats; settings: for Potentiation of heart rate response to p-tyramine: 18 h, p-tyramine i.v.
Experimental: The following test procedures can be employed to assess the potential of a compound of Formula I for producing the "cheese effect": […]
Eighteen hours later the animals are anaesthetized with pentobarbitone (60 mg/kg i.p.), in some instances pithed, and in all cases set up for recording heart rate and blood pressure by standard techniques.

MAO-A = test: Inhibition of MAO-A ex vivo; type: in vivo, male Sprague-Dawley rats; settings: p.o.; 1080 min
Experimental: (§1) The ability of a compound of Formula I to inhibit MAO can be determined ex vivo by the following procedure:
(§2) The test compound is administered orally (p.o.) to 300-350 g male Sprague-Dawley rats (Charles River, France) and the animals are killed 18 hours after treatment. The brain, heart, liver and/or duodenum is removed and either a crude homogenate or a mitochondrial fraction, described in Example 5, Part (A), is prepared. MAO activity is determined in the homogenates using ^14 C p-tyramine, as the substrate. Table III gives the results of the testing of (Z)-2-(2',4'-dichlorophenoxy)methyl-3-fluoroallylamine according to the above described procedure. Selectivity can be determined by repeating the above-described test using either ^14 C […] (for MAO-A) or ^14 C phenethylamine (for MAO-B) as the substrate for determining the percentage inhibition.

[2] = tested on: heart monoamines and their metabolites; test: Inhibition of MAO in vivo: heart monoamines and their metabolites (HPLC); set-up: species or system male Sprague-Dawley rats; NE, Table V (heart) / DOPAC, Table V (heart) / 5HT, Table V (heart) / 5HIAA, Table V (heart): unit not given beside the values; settings: for 5HIAA, Table V (heart) / DOPAC, Table V (heart) / NE, Table V (heart) / HVA, Table V (heart) / 5HT, Table V (heart): 18 h; for 5HIAA, Table V (heart): control 7 ± 1; for DOPAC, Table V (heart): control 78 ± 22; for NE, Table V (heart): control 735 ± 100; for HVA, Table V (heart): control 38 ± 9; for 5HT, Table V (heart): control 808 ± 50
Experimental: The ability of a compound of Formula I to inhibit MAO can be determined in vivo using brain and heart samples obtained from the ex vivo study reported in Example 9. Monoamines and their deaminated metabolites were determined by HPLC with electrochemical detection by the method of J. Wagner et al, J. Neurochem. 38 1241-1254.
When (Z)-2-(2',4'-dichlorophenoxy)methyl-3-fluoroallylamine is tested according to the above-described procedure, the results given in Tables IV and V are obtained. In these tables the following abbreviations are used: […]

MAO-B = test: Inhibition of MAO ex vivo, phenethylamine as substrate (MAO-B); type: in vivo, male Sprague-Dawley rats; settings: for % Inhibition, Brain (2) / % Inhibition, Duodenum (2) / % Inhibition, Heart (2) / % Inhibition, Liver (2): 18 h, 14C phenethylamine
Experimental: as §1, §2

MAO = test: Inhibition of MAO in vitro, partially purified rat brain mitochondria, 14C p-tyramine substrate; type: biochemical; settings: tested as hydrochloride salt
Source text: Inhibition of MAO--In vitro testing
(A) The ability of a compound of Formula I to inhibit MAO can be determined in vitro by the method of A. Christmas et al., Br. J. Pharmacol., 45, 490 (1972) in partially purified mitochondria from rat brain using ^14 C p-tyramine as the substrate. The MAO inhibitory activity of a compound is expressed as the "IC50 " value, which is the molar concentration required to produce 50% inhibition of the enzyme.

NC/C(=C/F)COc1ccc(Cl)cc1Cl [(z)-2-(2',4'-dichlorophenoxy)methyl-3-fluoroallylamine]
Ratio B:A (inhibitory activity against MAO-B versus MAO-A) (MAO-B versus MAO-A): 200
Potentiation of heart rate response to p-tyramine ([1]; 10 mg/kg by mouth, in words): none
cardiovascular responses to tyramine injected intravenously, in words ([1]; 10 mg/kg p.o. 18 h prior to testing): affected to only a small extent
Potentiation of heart rate response to p-tyramine ([1]; 25 mg/kg by mouth): 2.8 fold
potentiation of tyramine ([1]; 25 mg/kg, two experiments): 2-3 fold
dose needed to inhibit MAO-A activity by more than 50% (MAO-A): greater than 5 mg/kg
5HIAA, Table V (heart) ([2]; 1 mg/kg p.o.): 16 ± 4
DOPAC, Table V (heart) ([2]; 1 mg/kg p.o.): 56 ± 11
NE, Table V (heart) ([2]; 1 mg/kg p.o.): 741 ± 56
HVA, Table V (heart) ([2]; 1 mg/kg p.o., p <0.02): 71 ± 6
5HT, Table V (heart) ([2]; 1 mg/kg p.o., spread ± 79): 1017
5HIAA, Table V (heart) ([2]; 2.5 mg/kg p.o.): 7 ± 1
HVA, Table V (heart) ([2]; 2.5 mg/kg p.o.): 53 ± 8
DOPAC, Table V (heart) ([2]; 2.5 mg/kg p.o.): 46 ± 12
NE, Table V (heart) ([2]; 2.5 mg/kg p.o.): 762 ± 20
5HT, Table V (heart) ([2]; 2.5 mg/kg p.o., spread ± 108): 995
5HIAA, Table V (heart) ([2]; 5 mg/kg p.o.): 20 ± 6
HVA, Table V (heart) ([2]; 5 mg/kg p.o.): 60 ± 16
DOPAC, Table V (heart) ([2]; 5 mg/kg p.o.): 56 ± 7
NE, Table V (heart) ([2]; 5 mg/kg p.o.): 875 ± 53
5HT, Table V (heart) ([2]; 5 mg/kg p.o., spread ± 154): 1018
5HIAA, Table V (heart) ([2]; 10 mg/kg p.o.): 14 ± 2
HVA, Table V (heart) ([2]; 10 mg/kg p.o.): 55 ± 3
DOPAC, Table V (heart) ([2]; 10 mg/kg p.o.): 62 ± 5
NE, Table V (heart) ([2]; 10 mg/kg p.o.): 729 ± 58
5HT, Table V (heart) ([2]; 10 mg/kg p.o., spread ± 82): 850
DOPAC, Table V (heart) ([2]; 25 mg/kg p.o.): 87 ± 27
NE, Table V (heart) ([2]; 25 mg/kg p.o.): 765 ± 50
5HIAA, Table V (heart) ([2]; 25 mg/kg p.o., p <0.02): 26 ± 4
HVA, Table V (heart) ([2]; 25 mg/kg p.o., p <0.02): 65 ± 4
5HT, Table V (heart) ([2]; 25 mg/kg p.o., spread ± 113): 685
monoamines or their metabolites in the heart, in words ([2]; 1-25 mg/kg p.o.): no consistent changes
% Inhibition, Brain (2) (MAO-B; 1 mg/kg po): 85%
% Inhibition, Duodenum (2) (MAO-B; 1 mg/kg po): 73%
% Inhibition, Heart (2) (MAO-B; 1 mg/kg po): 40%
% Inhibition, Liver (2) (MAO-B; 1 mg/kg po): 57%
% Inhibition, Brain (2) (MAO-B; 2.5 mg/kg po): 90%
% Inhibition, Duodenum (2) (MAO-B; 2.5 mg/kg po): 82%
% Inhibition, Heart (2) (MAO-B; 2.5 mg/kg po): 31%
% Inhibition, Liver (2) (MAO-B; 2.5 mg/kg po): 67%
% Inhibition, Brain (2) (MAO-B; 5 mg/kg po): 93%
% Inhibition, Duodenum (2) (MAO-B; 5 mg/kg po): 95%
% Inhibition, Heart (2) (MAO-B; 5 mg/kg po): 40%
% Inhibition, Liver (2) (MAO-B; 5 mg/kg po): 89%
% Inhibition, Brain (2) (MAO-B; 10 mg/kg po): 96%
% Inhibition, Duodenum (2) (MAO-B; 10 mg/kg po): 96%
% Inhibition, Heart (2) (MAO-B; 10 mg/kg po): 40%
% Inhibition, Liver (2) (MAO-B; 10 mg/kg po): 90%
% Inhibition, Brain (2) (MAO-B; 25 mg/kg po): 98%
% Inhibition, Duodenum (2) (MAO-B; 25 mg/kg po): 98%
% Inhibition, Heart (2) (MAO-B; 25 mg/kg po): 64%
% Inhibition, Liver (2) (MAO-B; 25 mg/kg po): 95%
preferential inhibition of MAO-B in the four tissues (MAO-B; at the dose levels tested (1-25 mg/kg po)): preferential inhibition of MAO-B
inhibition of brain MAO-B (MAO-B; doses as low as 1 mg/kg p.o.): greater than 80%
IC50 (MAO): 150 nM
